{"source": "paper PMC8467576", "about": "“Novel Ubiquitin Specific Protease-13 Inhibitors Alleviate Neurodegenerative Pathology” (Metabolites, 2021)", "key": {"[1]": {"assay": "Pharmacokinetics in wild type C57BL6 mice (brain and serum, UHPLC-MS/MS)", "format": "in vivo", "details": "C57BL/6, mouse, ip, 10 mg/kg I.P.; for AUC: over 12 h; for half-life: read-out: T1/2 (elimination) (converted)", "description": "Wild type C57BL6 mice were injected with 10 mg/kg BK50118-C versus DMSO, and the brain and serum were isolated at 0, 1, 2, 4, 6, 8 and 12 h; extracted in water and examined by mass spectrometry. […] Elimination (T1/2) was 2.32 h for brain and 1.84 h in serum.\nC57BL/6 mice received a single intraperitoneal dose (10 mg/kg) of BK50118-C. Brain and serum samples were collected at 1, 2, 3, 4, 8 and 12 h (n = 3 per time point). Animals injected with vehicle (DMSO) were used for background subtraction. Stock solution of the drug (1 mg/mL) and internal standards were prepared in methanol. Intermediate solutions used for the calibrators and control samples were serial-diluted in methanol/water (1:1). Preparation of the calibration curve standards and quality samples (QC) were performed by mixing the intermediate dilutions in blank samples (brain homogenates, serum). The internal standard working solution contained deuterium labeled BK50118-C-d7 at the concentration of 5 ng/mL diluted in acetonitrile (ACN)/ethyl acetate (4:1). Serum and brain samples were stored at −80 °C and then thawed to room temperature prior to preparation. The brains were homogenized in MilliQ water (1 mg brain: 10 µL water). Proteins were precipitated in both brain and serum samples by mixing 25 µL aqueous sample with 75 µL internal standard working solution. The mixture was centrifuged at 12,300× g for 5 min. Thereafter, 75 µL of each supernatant and 25 µL of MilliQ water were pipetted into a 96-well PCR plate (Fisher Scientific, Dawsonville, GA, USA).\nThe concentrations of BK50118-C in the brain tissue and serum samples were measured by ultrahigh performance liquid chromatography tandem mass spectrometry (UHPLC-MS/MS). Briefly, the UHPLC-MS/MS system included an Elute HTG binary gradient UHPLC pump, an Elute column oven and an EVOQ Elite triple quadrupole mass spectrometer (all from Bruker Daltonik GmbH, Bremen, Germany) equipped with an electrospray ionization (ESI) source operating in a positive mode. The samples were injected by use of a PAL auto sampler (CTC Analytics, Zwingen, Switzerland) equipped with a 10-µL sample loop; the samples were kept in a PAL stack cooler for 6 microtiter plates and operating at +6 °C. The system was controlled by a Compass 2.0/HyStar 4.0 software (Bruker); the compound screening and quantitation was performed by a TASQ 2.2 data acquisition and processing software (Bruker). The mass spectrometer was supplied by nitrogen and air generated by a Genius 3045 nitrogen/air generator (Peak Scientific Instruments, Inchinnan, Scotland, UK). The ESI parameters were as follows: probe gas flow 50, nebulizer gas flow 60, probe temperature +400 °C, cone gas flow 20, cone temperature +350 °C, CID gas Ar 1.5 mTorr. The mass spectra were scanned in the MRM mode to find the optimal collision energies for the test compounds and their respective precursor ions.\nFor chromatographic separation, an YMC-Ultra HT Hydrosphere C18 column (2.0 × 100 mm, 2 µm particle size) and an YMC-Hydrosphere 2.1 × 5 mm guard column (YMC Co. Ltd., Kyoto, Japan) were used. The mobile phase A was 10 mM ammonium formate, pH 4.3, in water; the mobile phase B was 10 mM ammonium formate, pH 4.3, in 10% water, 50% acetonitrile and 40% isopropyl alcohol. The mobile phase gradient was as follows (min—A/B%): 0 min—50/50, 0.5 min—50/50, 2.0 min—20/80, 3 min—20/80, 3.1 min—50/50, 4.5 min—50/50. The flow rate was 450 µL/min, and the column temperature was set at 50 °C. The sample injection volume was 10 µL."}, "human alpha-synuclein": {"test_system": "human alpha-synuclein", "assay": "Alpha-synuclein levels in TgA53T mice (WB, ELISA, DAB staining)", "format": "in vivo, mouse", "details": "vs DMSO; for reduction of number of human alpha-synuclein positive neurons: 40 mg/Kg I.P. daily for 7 days", "description": "Male and female TgA53T mice (15 months old) were treated daily with intraperitoneal injection of DMSO versus 10 mg/kg or 40 mg/kg BK50118-C for 7 days. […] ELISA measurement of alpha-synuclein in the same extracts (Figure 4C) confirmed that human alpha-synuclein was reduced by about 30% (10 mg/kg) and 56% (40 mg/kg), respectively (Figure 4C).\nBK50118-C is one of novel small molecule inhibitors of USP13 synthesized in our laboratory. For BK50118-C treatment, approximately 15 months old (±1 month) male and female TgA53T mice were treated with intraperitoneal injection of vehicle (DMSO) or BK50118-C at the daily dosage of 10 mg/Kg or 40 mg/Kg for 7 days. Animals were age and sex-matched in their respective treatment cohorts. All animals were sacrificed after treatment. All experiments were conducted in full compliance with the recommendations of Georgetown University Animal Care and Use Committee. These experiments were conducted under animal protocol No. 2016-1194 titled, Misfolded Protein Clearance in Neurodegeneration, which was approved by the Georgetown University IACUC. Protocol Information: IACUC Protocol Number: 2016-1194. Protocol Approval Date: 14 September 2020 Expiration Date: 14 September 2023.\nTo extract the soluble proteins from mouse midbrain lysates, tissues were isolated and homogenized in 1x STEN buffer (50 mM Tris (pH 7.6), 150 mM NaCl, 2 mM EDTA, 0.2% NP-40, 0.2% BSA, 20 mMPMSF and protease cocktail inhibitor), centrifuged at 10,000× g for 20 min at 4 °C, and the supernatant containing the soluble protein fraction was collected. Extracts were analyzed by Western blot (WB) on 4–12% SDS NuPAGE Bis-Tris gel (Invitrogen, NP0301BOX). Beta-actin (β-actin) was probed (1:3000) with monoclonal antibody (Emdmillipore, MAB1501R, Burlington, MA, USA). Human alpha-synuclein was probed (1:2000) with monoclonal antibody (Thermo Fisher, AHB0261, Rockford, IL, USA). USP13 was probed (1:1000) with polyclonal antibody (ThermoFisher, PA5-12014, Rockford, IL, USA). Ubiquitin was probed (1:5000) with polyclonal antibody (Thermo Fisher, PA3-16717, Rockford, IL, USA). WBs were quantified by densitometry using Quantity One 4.6.3 software (Bio Rad, Hercules, CA, USA) and Image J.\nThe ELISA for USP13 (MyBioSource, Cat # MBS9335287, San Diego, CA, USA), Human alpha-synuclein (Biolegend, Cat # 844101, San Diego, CA, USA) and specific p-Tau ser396 (Invitrogen, KHB7031, Waltham, MA, USA) were performed on cell or brain tissue extracts as described above according to manufacturers’ protocol.\nDAB staining was performed for alpha-synuclein (Thermo Fisher, AHB0261, Rockford, IL, USA) on the 20 µm thick mouse brain sections, and stereological counting of alpha-synuclein+ neurons counterstained with Nissl was conducted."}}, "note": "Where “and” joins values, the source holds several entries; their conditions need not be identical. Identical values can stand only once. Like-named read-outs stand apart in the source and are kept apart here.", "data": [{"molecule": "Fc1ccc2nccc(OCc3ccccc3)c2c1", "note": "[BK50118-C, 4-benzyloxy-6-fluoroquinoline]", "values": [{"measurement": "Kp", "setting": "[1]; brain and serum, read-out: Ratio of Serum/Brain", "result": 0.28}, {"measurement": "Cmax", "setting": "[1]; brain", "result": "81.5 nM and 20.6 ng/mL"}, {"measurement": "Tmax", "setting": "[1]; brain", "result": 1, "unit": "h"}, {"measurement": "AUC", "setting": "[1]; brain", "result": "0.164 ± 0.0395", "unit": "µM·h"}, {"measurement": "half-life", "setting": "[1]; brain", "result": 2.32, "unit": "h"}, {"measurement": "Cmax", "setting": "[1]; serum", "result": "89.7 ng/mL and 355 nM"}, {"measurement": "Tmax", "setting": "[1]; serum", "result": 1, "unit": "h"}, {"measurement": "AUC", "setting": "[1]; serum", "result": "0.599 ± 0.143", "unit": "µM·h"}, {"measurement": "half-life", "setting": "[1]; serum", "result": 1.84, "unit": "h"}, {"measurement": "reduction of human alpha-synuclein in midbrain extracts (ELISA)", "setting": "human alpha-synuclein; 10 mg/kg I.P. daily for 7 days", "result": "about 30%"}, {"measurement": "human alpha-synuclein in midbrain lysates (WB)", "setting": "human alpha-synuclein; 10 mg/kg or 40 mg/kg I.P. daily for 7 days", "result": "significantly reduced"}, {"measurement": "reduction of human alpha-synuclein in midbrain extracts (ELISA)", "setting": "human alpha-synuclein; 40 mg/kg I.P. daily for 7 days", "result": "~56", "unit": "%"}, {"measurement": "reduction of number of human alpha-synuclein positive neurons", "setting": "human alpha-synuclein; cortex", "result": 42, "unit": "%"}, {"measurement": "reduction of number of human alpha-synuclein positive neurons", "setting": "human alpha-synuclein; striatum", "result": 40, "unit": "%"}]}]}
